The values below come from article PMC9855884, “Glycosylated Lipopeptides—Synthesis and Evaluation of Antimicrobial Activity and Cytotoxicity” (Biomolecules, 2023).

In brackets after ≈: the same amount, converted by molar mass. Several values for one entry are separate records, joined by “and”; a condition that tells them apart may be missing. Equal entries are not always repeated. Marks after values point to notes of the source that are not given here. Where a SMILES comes first, the peptide text is derived from it. The star is where a group is joined. Myristoyl = CCCCCCCCCCCCCC(=O)*

Data set [1] in a line: Determination of peptide hydrophobicity with RP-HPLC (adjusted retention time). Type of data set: physicochemical. Conditions: RP-HPLC as measure of hydrophobicity; Waters X-Bridge Shield RP-18 3.0 × 100 mm, 3.5 μm; linear 20–80% acetonitrile in water over 30 min, 0.1% TFA; 0.5 mL/min; 25.0 °C; peptide 1 g/L in water (0.1% TFA); UV 214 nm; triplicate. The protocol: To determine peptide hydrophobicity, a Waters Alliance e2695 system with a Waters 2998 PDA Detector was used. All analyses were carried out on a Waters X-Bridge Shield RP-18 column (3.0 × 100 mm, 3.5 μm particle size, 130 Å pore size). The peptides were dissolved in water (0.1% TFA, v/v) up to a concentration of 1 g/L. UV detection at 214 nm was used, and samples (10 μL) were eluted with a linear 20–80% acetonitrile gradient in deionized water over 30 min at 25.0 ± 0.1 °C. The mobile phase flow rate was 0.5 mL/min. Both eluents contained 0.1% (v/v) of TFA. Each peptide sample was analyzed in triplicate. Maximum standard deviation and coefficient of variation were 0.046 and 0.23%, respectively.
After synthesis and purification, all the products were analyzed with MS and HPLC to confirm purity and identity of the compounds. […] The chromatographic analyses were performed with RP-HPLC; retention time refers to hydrophobicity of the lipopeptide.

The test system of a further data set is C. glabrata ATCC 15126. Type of data set: cell-based, Candida glabrata. Conditions: ATCC 15126, 24 h. The protocol:
The Acinetobacter baumannii ATCC BAA-1605, Enterococcus faecium ATCC 700221, Klebsiella aerogenes ATCC 13048, Klebsiella pneumoniae ATCC 700603, Pseudomonas aeruginosa ATCC 9027, Staphylococcus aureus ATCC 33591, Candida glabrata ATCC 15126, strains were acquired from the American Type Culture Collection (ATCC). All the strains were stored at −80 °C in Roti-Store cryo vials and were transferred into fresh Mueller–Hinton broth (MHB, Becton Dickinson, Warsaw, Poland) for bacteria or RPMI-1640 (Sigma-Aldrich, Steinheim, Germany) for fungi before the tests and incubated for 24 h at 37 °C. Then, the cultures were seeded on the Mueller–Hinton agar (BioMaxima, Lublin, Poland) or Sabouraud dextrose agar (SDA, BioMaxima, Lublin, Poland) plates, respectively, and incubated as just mentioned. These agar cultures were used for further microbiological assays. Cell densities for all assays were adjusted spectrophotometrically (Multiskan GO Microplate Spectrophotometer, Thermo Fisher Scientific, Vantaa, Finland) at 600 and 530 nm for bacteria and fungi, respectively.
The MICs were determined using a broth microdilution method according to the Clinical and Laboratory Standard Institute guidelines. For this purpose, initial inoculums of bacteria (5 × 10^5 CFU/mL) in MHB and yeasts (2 × 10^3 CFU/mL) in RPMI-1640 with 2% D-glucose were exposed to the ranging concentration of lipopeptides (1–512 μg/mL) and incubated at 37 °C for 18 h and 24 h, respectively. The experiments were conducted on 96-well microtiter polystyrene plates (Kartell, Italy). The growth was assessed visually after incubation and the MIC was assumed as the lowest peptide concentration at which a noticeable growth of microorganisms was inhibited. All experiments were conducted in triplicate.

A short description of a further data set: MTT assay, cytotoxicity. Conditions: HaCaT, 24 h incubation at 37 °C, 0.5–500 μg/mL, six replicates per concentration, repeated at least twice. Type of data set: cell-based, human. As for the experimental part:
To evaluate the cytotoxicity of the test peptides (IC50), the classic MTT assay on 96-well plates was performed for human keratinocytes (HaCaT) which were acquired from the ATCC. The assay was based on colorimetric determination of the cell metabolic activity where the color intensity reflected the number of live cells that could be measured spectrophotometrically. The cell line was cultured in a Dulbecco’s modified Eagle Medium (Invitrogen) supplemented with 10% fetal bovine serum (v/v), 100 units/mL of penicillin, 100 μg/mL of streptomycin, and 2 mM L-glutamine and was kept at 37 °C in a humidified 5% CO2 incubator. Briefly, a day after plating of 500 cells per well, a series of concentrations (0.5–500 μg/mL) of the test compounds were applied. DMSO was added to the control cells at a final concentration of 1.0% (v/v), which was related to the maximum concentration of the solvent compounds used in the experiment. After 24 h of incubation at 37 °C (humidified 5% CO2 incubator) with the peptides, a medium containing 1 mg/mL of MTT was added to the wells up to a final concentration of 0.5 mg/mL. Subsequently, the plates were incubated at 37 °C for 4 h. Then, the medium was aspirated, and the formazan product was solubilized with DMSO. The background absorbance at 630 nm was subtracted from that at 570 nm for each well (Epoch, BioTek Instruments, Winooski, VT, USA). Six replicates were conducted for each concentration. All experiments were repeated at least twice and the resulting IC50 values were calculated with a GraFit 7 software (v. 7.0, Erithacus, Berkley, CA, USA).
The selectivity indexes were calculated for all the strains as IC50/MIC. According to IC50, in most cases, glycosylation caused only a slight decrease in toxicity. However, in contrast with SI calculated for HC50, the differences between USCLs and gUSCLs are not so distinct. […] Moreover, toxicity of USCLs and gUSCLs is high and exceeds their antimicrobial activity. The lipopetides were not selective against Gram-negative strains (K. pneumoniae, A. baumannii, P. aeruginosa, K. aerogenes) over human cells. A few USCLs were selective (SI > 1) against E. faecium and S. aureus with SI up to 1.87; and some gUSCLs were selective against E. faecium but not against S. aureus, with SI between 0.63 and 1.73. […] In this case, SI of gUSCLs was noticeably […] than that of corresponding parent USCLs (2.07, 1.99, 2.67 vs. 2.53, 2.36, 3.46, respectively). Selectivity indexes were plotted against adjusted retention time (Figures S15–S21). A moderate linear correlation was found in USCLs and K. pneumoniae, C. glabrata, and gUSCLs and K. pneumoniae, K. aerogenes (R^2 between 0.6064 and 0.6481). A relatively high linear correlation was obtained for USCLs and K. aerogenes (R^2 of 0.8214) and also for gUSCLs and C. glabrata (R^2 of 0.9223).

For the next data set, the system named is E. faecium ATCC 700221. The settings on record: planktonic cells, analyses performed in the previous study; cited from earlier work. From the text:
However, enhanced activity with elongation of the hydrocarbon chain length in fatty acid residue and the change of serine position to 2 or 3 could be seen. […] Generally, the lo ...

A further data set deals with S. aureus ATCC 33591. Conditions: planktonic cells, analyses performed in the previous study; cited from earlier work. From the text:
Table 2 Antimicrobial activity (MIC [µg/mL]) of lipopeptides 1–18 against planktonic cells. | column: S. aureus ATCC 33591

Data set [2] deals with K. pneumoniae ATCC 700603. Conditions: planktonic cells, analyses performed in the previous study; cited from earlier work. From the text: Table 2 Antimicrobial activity (MIC [µg/mL]) of lipopeptides 1–18 against planktonic cells. | column: K. pneumoniae ATCC 700603
For data set [3], the system named is A. baumannii ATCC BAA 1605. The settings on record: planktonic cells, analyses performed in the previous study; cited from earlier work. The text has this:
Table 2 Antimicrobial activity (MIC [µg/mL]) of lipopeptides 1–18 against planktonic cells. | column: A. baumannii ATCC BAA 1605

The subject of a further data set is P. aeruginosa ATCC 9027. The settings on record: planktonic cells, analyses performed in the previous study; cited from earlier work. From the text: Table 2 Antimicrobial activity (MIC [µg/mL]) of lipopeptides 1–18 against planktonic cells. | column: P. aeruginosa ATCC 9027
The test system of another data set is K. aerogenes ATCC 13048. Conditions: planktonic cells, analyses performed in the previous study; cited from earlier work. The text has this:
Table 2 Antimicrobial activity (MIC [µg/mL]) of lipopeptides 1–18 against planktonic cells. | column: K. aerogenes ATCC 13048

Data set [4] has as its system human red blood cells (RBCs). Conditions: cited from earlier work.
The subject of another data set is S. aureus biofilm. Set-up: method as in PMID 33804887. Conditions: S. aureus ATCC 33591 biofilm; previous studies; cited from earlier work.
The test system of another data set is K. pneumoniae biofilm. Also on record: method as in PMID 33804887. The settings on record: K. pneumoniae biofilm (Gram-negative strains); previous studies; cited from earlier work.
Another data set relates to A. baumannii biofilm. Also on record: method as in PMID 33804887. Conditions: A. baumannii biofilm (Gram-negative strains); previous studies; cited from earlier work.
For a further data set, the system named is P. aeruginosa biofilm. Set-up: method as in PMID 33804887. Conditions: P. aeruginosa biofilm (Gram-negative strains); previous studies; cited from earlier work.

For `CCCCCCCCCCCCCC(=O)N[C@@H](CO)C(=O)N[C@@H](CCCNC(=N)N)C(=O)N[C@@H](CCCNC(=N)N)C(N)=O` [Peptide 1, C14-SRR-NH2] (Myristoyl-Ser-Arg-Arg-NH2), the “Adjusted Retention Time” value in [1] was 16.55 min. Also, the MIC was 32 µg/mL (≈ 51 µM) against C. glabrata ATCC 15126; 16 µg/mL and 16 * µg/mL in the data set on E. faecium ATCC 700221; 16 * µg/mL with S. aureus ATCC 33591; 128 * µg/mL in data set [2]; 32 * µg/mL in data set [3]; 32 * µg/mL in the data set with P. aeruginosa ATCC 9027. Moreover, the MIC with K. aerogenes ATCC 13048 was 128 * µg/mL. Half-maximal inhibition in “MTT assay, cytotoxicity” (IC50) required 1.41 ± 0.29 µg/mL (≈ 2.25 µM). Besides, in data set [4], the “HC50 (hemolytic activity)” value is recorded as 41.54 ± 1.29 µg/mL.
Turning to C12-RR-NH2 [Peptide C12-RR-NH2], the MBEC in the data set on S. aureus biofilm is listed as 64 µg/mL; in the data set on K. pneumoniae biofilm, 512 µg/mL; with A. baumannii biofilm, 512 µg/mL; in the data set with P. aeruginosa biofilm it was 512 µg/mL.

A word on the MIC: it is the smallest concentration in the dilution series that meets the test's criterion for growth inhibition. What is called IC50 is the point on the concentration scale where inhibition reaches its midpoint. Higher therefore signals weaker potency in that assay.
